From PubChem BioAssay (NCI)
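Protocol summary: plate cells (96-well), add compound at 5 concentrations, incubate 48 h, interpolate endpoints linearly. GI50 marks 50% less growth. TGI denotes the concentration required for complete inhibition of growth.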

Legend:
Test in all cases: NCI-60 cell line screen, 48 h
[1] = test system: HT29 colon
[2] = test system: MALME-3M melanoma
[3] = test system: MOLT-4 leukemia
[4] = test system: SK-MEL-2 melanoma
[5] = test system: SN12C renal
[6] = test system: SNB-19 CNS
[7] = test system: SNB-75 CNS
[8] = test system: SW-620 colon
[9] = test system: MCF7 breast
[10] = test system: BT-549 breast

Structure (SMILES) | TGI [1] [µM] | TGI [2] [µM] | TGI [3] [µM] | TGI [4] [µM] | TGI [5] [µM] | TGI [6] [µM] | TGI [7] [µM] | TGI [8] [µM] | TGI [9] [µM] | GI50 [10] [µM] | TGI [10] [µM] | GI50 [1] [µM] | GI50 [9] [µM] | GI50 [3] [µM] | GI50 [4] [µM] | GI50 [5] [µM] | GI50 [8] [µM] | GI50 [2] [µM] | GI50 [6] [µM] | GI50 [7] [µM]
C1CCN2CC3CONC3C2C1 (centres undefined) | > 100 | > 100 | > 100 | > 100 | > 100 | > 100 | > 100 | > 100 | – | – | – | – | – | – | – | – | – | – | – | –
O=c1[nH]c(=O)n(C2CC(O)C(O)C(CO)O2)cc1F (centres undefined) | > 100 | > 100 | > 100 | > 100 | > 100 | > 100 | > 100 | > 100 | – | – | – | – | – | – | – | – | – | – | – | –
O=CC(O)C(O)C(OC1OC(CO)C(O)C(O)C1O)C(O)CO (centres undefined) (tested in a mixture with another compound) | > 100 | > 100 | – | > 100 | > 100 | > 100 | > 100 | > 100 | > 100 | – | – | – | – | – | – | – | – | – | – | –
O=C(O)C1=C(C(=O)O)Oc2ccccc2O1 | > 100 | > 100 | > 100 | > 100 | > 100 | > 100 | > 100 | > 100 | – | – | – | – | – | – | – | – | – | – | – | –
O=C1c2ccccc2-c2c1c1ccc([N+](=O)[O-])cc1c(=O)n2CCCCl | > 100 | – | > 100 | > 100 | > 100 | – | – | > 100 | > 100 | 13.3 | > 100 | 65 | 1.12 | 2.1 | > 100 | 27.1 | 3.12 | – | – | –
CC(C)=CC(=O)CC(=O)C(=O)NCCNC(=O)C(=O)CC(=O)C=C(C)C | > 50 | > 50 | – | > 50 | > 50 | > 50 | > 50 | > 50 | – | – | – | – | – | – | – | – | – | – | – | –
Cc1c(C)c2ccc(OC(C)C(=O)O)cc2oc1=O (centres undefined) | > 100 | > 100 | > 100 | – | > 100 | > 100 | > 100 | > 100 | – | – | – | – | – | – | – | – | – | – | – | –
COc1ccc(C(=O)/C=C/c2ccc(OCc3ccccc3)c(OC)c2)cc1OC | 89.7 | > 100 | > 100 | 36.3 | > 100 | > 100 | – | > 100 | > 100 | 2.79 | 8.11 | 3.19 | 3.02 | 3.65 | 11 | 3.97 | 3.05 | 12.7 | 5.31 | –
CC1=C(C(=O)CC(=O)C(=O)Nc2ccccc2C)Sc2ccccc2N1 | > 100 | > 100 | > 100 | > 100 | > 100 | > 100 | > 100 | > 54.1 | – | – | – | – | – | – | – | – | – | – | – | –
Cc1cc(OC(=O)c2c(C)cc(OC(=O)c3c(C)cc(O)cc3O)cc2O)cc(O)c1C(=O)O | > 100 | > 100 | > 100 | > 100 | > 100 | > 100 | > 100 | > 100 | – | – | – | – | – | – | – | – | – | – | – | –
CC1(C)CC(O)CC(C)(C)N1.CC1(C)CC(O)CC(C)(C)N1.CC1(C)CC(O)CC(C)(C)N1.CC1(C)CC(O)CC(C)(C)N1.Cl.[Ti] | > 100 | – | > 100 | > 100 | > 100 | – | > 100 | > 100 | – | – | – | > 100 | – | > 100 | > 100 | > 100 | > 100 | – | – | > 100
OC1CSCCSCCCSCCSC1 | > 100 | – | > 100 | > 100 | > 100 | > 100 | > 100 | > 100 | > 100 | – | > 100 | – | – | – | – | – | – | – | – | –
COC(=O)c1ccc2c(c1)C(=O)c1c-2n(CCCCl)c(=O)c2cc(OC)c(OC)cc12 | > 100 | > 100 | – | > 100 | > 100 | > 100 | 91.6 | > 100 | > 100 | – | – | > 100 | > 100 | – | > 100 | > 100 | > 100 | > 100 | > 100 | 12.9
CCOC(=O)COc1cccc2occc(=O)c12 | > 100 | > 100 | > 100 | > 100 | > 100 | > 100 | – | > 100 | – | – | – | – | – | – | – | – | – | – | – | –
Cc1ccc(-c2nc(C(Cl)Cl)nc3cc(C)nn23)cc1 | > 100 | – | > 100 | > 100 | > 100 | > 100 | 8.39 | – | > 100 | 9.68 | > 100 | 0.458 | 1.97 | 1.82 | > 100 | 5.88 | – | – | 2.34 | 1.48
Cc1ccc(NC(=O)c2ccc(NC3=C(Cl)C(=O)N(Cc4ccccc4)C3=O)cc2)cc1Cl | 51.3 | – | 15.1 | 34.1 | 20.5 | > 100 | 76.8 | 11.8 | 15.4 | 1.04 | 5.09 | 6.81 | 3.3 | 2.35 | 12.5 | 3.87 | 1.99 | – | 60.5 | 23.9
Nc1nc(-c2ccccc2)cc(-c2cc(Cl)ccc2O)n1 | > 100 | > 100 | > 100 | – | > 100 | > 100 | 69 | > 100 | – | – | – | – | – | – | – | – | – | – | – | –
O=S(=O)(Cc1ccccc1)SCc1ccccc1 | 54.1 | 73.6 | 14.3 | > 70.9 | 58 | > 100 | > 100 | 15.5 | – | – | – | – | – | – | – | – | – | – | – | –
CC(=O)OC1COC(Oc2c(C)c3c4c(c2O)[C@@H](C)CC[C@@H]4[C@@H](C)C[C@H]3C=C(C)C)C(O)C1O (some centres undefined) | – | 27.3 | 22.5 | > 100 | 46.8 | 73.7 | – | – | > 100 | – | – | – | 20.7 | 2.24 | 47.1 | 20.8 | – | 13.2 | 28.8 | –
